Molecular target: T1, Human DGAT1 (Homo sapiens, UniProt O75907)
T1 construct: my translation of the primer: M-G-DYKDDDD-GDRGSSRRR) (N); made in house; host or cells: Sf9 insect cells (recombinant baculovirus BAC-DGAT1, pFASTBAC1); microsome fraction
T1 sequence (O75907 1-488): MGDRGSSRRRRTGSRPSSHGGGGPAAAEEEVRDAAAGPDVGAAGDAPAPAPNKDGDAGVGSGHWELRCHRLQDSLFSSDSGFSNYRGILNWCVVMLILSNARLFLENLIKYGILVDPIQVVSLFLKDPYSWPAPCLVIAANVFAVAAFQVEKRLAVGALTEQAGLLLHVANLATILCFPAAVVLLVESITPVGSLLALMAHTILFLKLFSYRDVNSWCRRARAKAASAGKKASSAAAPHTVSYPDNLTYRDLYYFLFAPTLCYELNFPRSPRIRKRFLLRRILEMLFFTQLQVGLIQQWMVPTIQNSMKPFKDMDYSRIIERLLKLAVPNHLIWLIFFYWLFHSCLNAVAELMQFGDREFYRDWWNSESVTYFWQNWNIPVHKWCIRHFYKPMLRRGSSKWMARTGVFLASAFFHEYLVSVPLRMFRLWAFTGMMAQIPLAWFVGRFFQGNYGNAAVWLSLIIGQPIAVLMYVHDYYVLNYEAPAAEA
Experiment: DGAT inhibitory activity: [14C]-triglyceride synthesis by DGAT1 high expression Sf9 microsome
Format: biochemical
Conditions: Table 1, 25 μM dioleoylglycerol, 25 μM [14C]-Oleoyl-CoA, 32° C., 15 min, read-out: DGAT inhibitory activity (according to IC50)
Procedure, shortened: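 DGAT1 was overexpressed from recombinant baculovirus in Sf9 cells, and microsomes from these cells were the enzyme source. Reactions ran in 100 mM Tris-HCl pH 7.5, 250 mM sucrose, 150 mM MgCl2 and 0.01% BSA. [14C]-triglyceride was extracted into chloroform, separated by TLC and quantified by imaging plate, with inhibition calculated against control and blank (no microsome) counts.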

Question: For `CCOc1ccc(C(=O)C(C)CC(=O)Nc2nc(-c3ccccc3)c(Cc3ccccc3)s2)cc1OCC` (stereo not drawn) [Example 57, N-(5-benzyl-4-phenyl-1,3-thiazol-2-yl)-4-(3,4-diethoxyphenyl)-3-methyl-4-oxobutanamide], which IC50 is on record?
Answer: The IC50 was no more than 0.01 µM.

Question: With `CCOc1ccc(C(=O)CCC(=O)Nc2nc(-c3ccccc3)c(Cc3ccccc3)s2)cc1Br` [Example 25, N-(5-benzyl-4-phenyl-1,3-thiazol-2-yl)-4-(3-bromo-4-ethoxyphenyl)-4-oxobutanamide] as the compound, how does the IC50 read?
Answer: Its IC50 is no more than 0.01 µM.

Question: How did the IC50 turn out when `CCOc1cc(NC(=O)CCC(=O)c2ccc(OCC)c(OCC)c2)nc(-c2ccccc2)c1` [Example 40, 4-(3,4-diethoxyphenyl)-N-(4-ethoxy-6-phenylpyridin-2-yl)-4-oxobutanamide] was run?
Answer: Its IC50 is 0.05 to 0.5 µM.

Question: Which IC50 does the source give for `CCOC(=O)c1sc(NC(=O)CCC(=O)c2ccc(OCC)c(OCC)c2)cc1-c1ccccc1` [Example 52, ethyl 5-{[4-(3,4-diethoxyphenyl)-4-oxobutanoyl]amino}-3-phenylthiophene-2-carboxylate] here?
Answer: Its IC50 is 0.05 to 0.5 µM.

Question: How did the IC50 turn out when `CCOc1ccc(C(=O)CCC(=O)Nc2cc(-c3ccccc3)nc(-c3ccccc3)n2)cc1OCC` [Example 14, 4-(3,4-diethoxyphenyl)-N-(2,6-diphenylpyrimidin-4-yl)-4-oxobutanamide] was run?
Answer: The IC50 was 0.05 to 0.5 µM.

Question: How did the IC50 turn out when `COc1cc2c(cc1OC)C(=O)[C@H](CC(=O)Nc1nc(-c3ccccc3)c(Cc3ccccc3)s1)C2` (stereo in doubt) [Example 6, N-(5-benzyl-4-phenyl-1,3-thiazol-2-yl)-2-(5,6-dimethoxy-1-oxo-2,3-dihydro-1H-inden-2-yl)acetamide] was run?
Answer: The IC50 was 0.01 to 0.05 µM.

Question: `O=C(O)COc1ccc(C(=O)CCC(=O)Nc2nc(-c3ccccc3)c(Cc3ccccc3)s2)cc1` [Example 38] was tested. Which IC50 did it give?
Answer: Its IC50 is 0.5 to 10 µM.

Question: For `COc1cc2c(cc1C(=O)CCC(=O)Nc1nc(-c3ccccc3)c(Cc3ccccc3)s1)CCCC2` [Example 29, N-(5-benzyl-4-phenyl-1,3-thiazol-2-yl)-4-(3-methoxy-5,6,7,8-tetrahydronaphthalen-2-yl)-4-oxobutanamide], which IC50 is on record?
Answer: The IC50 was 0.01 to 0.05 µM.

Question: `CCOc1cccc(C(=O)CCC(=O)Nc2nc(-c3ccccc3)c(Cc3ccccc3)s2)c1` [Example 5, N-(5-benzyl-4-phenyl-1,3-thiazol-2-yl)-4-(3-ethoxyphenyl)-4-oxobutanamide] was tested. Which IC50 did it give?
Answer: Its IC50 is no more than 0.01 µM.

Question: `CCOc1cccc(C(=O)CCC(=O)Nc2cc(-c3ccccc3)c(Cc3ccccc3)s2)c1` [Example 45, N-(5-benzyl-4-phenyl-2-thienyl)-4-(3-ethoxyphenyl)-4-oxobutanamide] was tested. Which IC50 did it give?
Answer: The IC50 was 0.05 to 0.5 µM.

Same assay, conditions: Table 2, 25 μM dioleoylglycerol, 25 μM [14C]-Oleoyl-CoA, 32° C., 15 min, read-out: DGAT inhibitory activity (according to IC50)

Question: Which IC50 does the source give for `CCOc1ccc(C(=O)CCC(=O)Nc2cc(-c3cccc(CCCO)c3)cc(-c3ccccc3)n2)cc1OCC` [Example 137, 4-(3,4-diethoxyphenyl)-N-{4-[3-(3-hydroxypropyl)phenyl]-6-phenylpyridin-2-yl}-4-oxobutanamide] here?
Answer: The IC50 was 0.05 to 0.5 µM.

Question: How did the IC50 turn out when `O=C(CCC(=O)c1ccc2c(c1)CCO2)Nc1cc(-c2ccoc2)cc(-c2ccccc2)n1` [Example 115, 4-(2,3-dihydro-1-benzofuran-5-yl)-N-[4-(3-furyl)-6-phenylpyridin-2-yl]-4-oxobutanamide] was run?
Answer: The IC50 was 0.05 to 0.5 µM.

Question: `CCOc1ccc(C(=O)CCC(=O)Nc2cc(-c3ccccc3Cl)nn2-c2ccc(C)cc2)cc1OCC` [Example 101, N-[3-(2-chlorophenyl)-1-(4-methylphenyl)-1H-pyrazol-5-yl]-4-(3,4-diethoxyphenyl)-4-oxobutanamide] was tested. Which IC50 did it give?
Answer: Its IC50 is 0.5 to 10 µM.

Question: Which IC50 does the source give for `CCOc1ccc(C(=O)CCC(=O)Nc2cc(-c3ccc(CCC(=O)OC)cc3)cc(-c3ccccc3)n2)cc1OCC` [Example 126, methyl 3-[4-(2-{[4-(3,4-diethoxyphenyl)-4-oxobutanoyl]amino}-6-phenylpyridin-4-yl)phenyl]propanoate] here?
Answer: The IC50 was 0.05 to 0.5 µM.

Question: How did the IC50 turn out when `CCOc1ccc(C(=O)CCC(=O)Nc2cc(-c3ccccc3)c3ccccc3n2)cc1` [Example 79, 4-(4-ethoxyphenyl)-4-oxo-N-(4-phenylquinolin-2-yl)butanamide] was run?
Answer: Its IC50 is 0.01 to 0.05 µM.

Question: `CCOc1ccc(C(=O)CCC(=O)Nc2cc(-c3cccn3C(=O)OC(C)(C)C)cc(-c3ccccc3)n2)cc1OCC` [Example 118, tert-butyl 2-(2-{[4-(3,4-diethoxyphenyl)-4-oxobutanoyl]amino}-6-phenylpyridin-4-yl)-1H-pyrrole-1-carboxylate] was tested. Which IC50 did it give?
Answer: Its IC50 is 0.5 to 10 µM.

Question: How did the IC50 turn out when `CCOc1ccc(C(=O)CCC(=O)Nc2nc3ccccc3c(-c3ccccc3)c2C)cc1OCC` [Example 88, 4-(3,4-diethoxyphenyl)-N-(3-methyl-4-phenylquinolin-2-yl)-4-oxobutanamide] was run?
Answer: The IC50 was 0.05 to 0.5 µM.

Question: `COC(=O)CCc1cccc(-c2cc(NC(=O)CCC(=O)c3ccc4c(c3)CCO4)nc(-c3ccccc3)c2)c1` [Example 173, methyl 3-[3-(2-{[4-(2,3-dihydro-1-benzofuran-5-yl)-4-oxobutanoyl]amino}-6-phenylpyridin-4-yl)phenyl]propanoate] was tested. Which IC50 did it give?
Answer: The IC50 was 0.01 to 0.05 µM.

Question: With `COc1ccc(C(=O)CCC(=O)Nc2nc(-c3ccccc3)c(Cc3ccccc3)s2)cc1OC` [Example 71, N-(5-benzyl-4-phenyl-1,3-thiazol-2-yl)-4-(3,4-dimethoxyphenyl)-4-oxobutanamide] as the compound, how does the IC50 read?
Answer: Its IC50 is no more than 0.01 µM.

Question: `CCOc1ccc(C(=O)CCC(=O)Nc2cc(-c3cccc(C(C)=O)c3)cc(-c3ccccc3)n2)cc1OCC` [Example 140, N-[4-(3-acetylphenyl)-6-phenylpyridin-2-yl]-4-(3,4-diethoxyphenyl)-4-oxobutanamide] was tested. Which IC50 did it give?
Answer: Its IC50 is 0.05 to 0.5 µM.

Question: For `COC(=O)c1cccc(-c2cc(NC(=O)CCC(=O)c3ccc4c(c3)CCO4)nc(-c3ccccc3)c2)c1` [Example 170, methyl 3-(2-{[4-(2,3-dihydro-1-benzofuran-5-yl)-4-oxobutanoyl]amino}-6-phenylpyridin-4-yl)benzoate], which IC50 is on record?
Answer: The IC50 was 0.5 to 10 µM.

Question: Which IC50 does the source give for `CCOc1ccc(C(=O)CCC(=O)Nc2cc(-c3cccc(C(=O)OC)c3)cc(-c3ccccc3)n2)cc1OCC` [Example 139, methyl 3-(2-{[4-(3,4-diethoxyphenyl)-4-oxobutanoyl]amino}-6-phenylpyridin-4-yl)benzoate] here?
Answer: The IC50 was 0.5 to 10 µM.

Question: `CCOc1ccc(C(=O)CCC(=O)Nc2cc(-c3ccccc3)c3ccc(/C=C/C#N)cc3n2)cc1OCC` [Example 86, N-{7-[(E)-2-cyanovinyl]-4-phenylquinolin-2-yl}-4-(3,4-diethoxyphenyl)-4-oxobutanamide] was tested. Which IC50 did it give?
Answer: Its IC50 is 0.01 to 0.05 µM.

Question: `CCOc1ccc(C(=O)CCC(=O)Nc2cc(-c3ccccc3)c3ccc(CCC(=O)OC(C)(C)C)cc3n2)cc1OCC` [Example 87, tert-butyl 3-(2-{[4-(3,4-diethoxyphenyl)-4-oxobutanoyl]amino}-4-phenylquinoline-7-yl)propanoate] was tested. Which IC50 did it give?
Answer: Its IC50 is 0.01 to 0.05 µM.

Question: For `CCOc1cccc(C(=O)CCC(=O)Nc2cc(-c3ccccc3)cc(-c3ccccc3)n2)c1` [Example 103, N-(4,6-diphenylpyridin-2-yl)-4-(3-ethoxyphenyl)-4-oxobutanamide], which IC50 is on record?
Answer: The IC50 was 0.5 to 10 µM.

Question: For `O=C(O)/C=C/c1cccc(-c2cc(NC(=O)CCC(=O)c3ccc4c(c3)CCO4)nc(-c3ccccc3)c2)c1` [Example 174, (2E)-3-[3-(2-{[4-(2,3-dihydro-1-benzofuran-5-yl)-4-oxobutanoyl]amino)-6-phenylpyridin-4-yl)phenyl]acrylic acid], which IC50 is on record?
Answer: The IC50 was 0.5 to 10 µM.

Question: With `CCOc1ccc(C(=O)CCC(=O)Nc2cc(-c3cccc(CCC(=O)O)c3)cc(-c3ccccc3)n2)cc1OCC` [Example 141, 3-[3-(2-{[4-(3,4-diethoxyphenyl)-4-oxobutanoyl]amino}-6-phenylpyridin-4-yl)phenyl]propanoic acid] as the compound, how does the IC50 read?
Answer: The IC50 was 0.5 to 10 µM.

Question: Which IC50 does the source give for `CC(=O)c1cccc(-c2cc(NC(=O)CCC(=O)c3ccc4c(c3)CCO4)nc(-c3ccccc3)c2)c1` [Example 171, N-[4-(3-acetylphenyl)-6-phenylpyridin-2-yl]-4-(2,3-dihydro-1-benzofuran-5-yl)-4-oxobutanamide] here?
Answer: Its IC50 is 0.05 to 0.5 µM.

Question: Which IC50 does the source give for `N#Cc1ccccc1-c1cc(NC(=O)CCC(=O)c2ccc3c(c2)CCO3)nc(-c2ccccc2)c1` [Example 176, N-[4-(2-cyanophenyl)-6-phenylpyridin-2-yl]-4-(2,3-dihydro-1-benzofuran-5-yl)-4-oxobutanamide] here?
Answer: The IC50 was no more than 0.01 µM.

Question: For `CCOC(=O)/C=C/c1ccc2nc(NC(=O)CCC(=O)c3ccc(OCC)c(OCC)c3)cc(-c3ccc(C)cc3)c2c1` [Example 77, ethyl(2E)-3-[2-{[4-(3,4-diethoxyphenyl)-4-oxobutanoyl]amino}-4-(4-methylphenyl)quinoline-6-yl]acrylate], which IC50 is on record?
Answer: Its IC50 is 0.01 to 0.05 µM.

Question: Which IC50 does the source give for `CCOc1ccc(C(=O)CCC(=O)Nc2cc(-c3ccccc3)c3ccc(/C=C/C(=O)O)cc3n2)cc1OCC` [Example 83, (2E)-3-(2-{[4-(3,4-diethoxyphenyl)-4-oxobutanoyl]amino}-4-phenylquinoline-7-yl)acrylic acid] here?
Answer: Its IC50 is 0.05 to 0.5 µM.

Question: For `CCOc1ccc(C(=O)CCC(=O)Nc2cc(-c3ccccc3)cc(-c3ccccc3)n2)cc1` [Example 102, N-(4,6-diphenylpyridin-2-yl)-4-(4-ethoxyphenyl)-4-oxobutanamide], which IC50 is on record?
Answer: The IC50 was 0.05 to 0.5 µM.

Question: Which IC50 does the source give for `CCOc1ccc(C(=O)CCC(=O)Nc2cc(-c3ccc(C(=O)O)cc3)cc(-c3ccccc3)n2)cc1OCC` [Example 113, 4-(2-{[4-(3,4-diethoxyphenyl)-4-oxobutanoyl]amino}-6-phenylpyridin-4-yl)benzoic acid] here?
Answer: The IC50 was 0.5 to 10 µM.

— US20090048258A1, “Amide Compound” (priority 2005, published 2009)
